Results on twelve compounds are retold here after publication PMC3227451, “Structure-based development of novel sirtuin inhibitors” (Aging (Albany NY), 2011).

What all share (assay type): biochemical
Assay [1] concerns the target T1, Sirt2 (Homo sapiens, UniProt Q8IXJ6).
T1 sequence (Q8IXJ6 34-356): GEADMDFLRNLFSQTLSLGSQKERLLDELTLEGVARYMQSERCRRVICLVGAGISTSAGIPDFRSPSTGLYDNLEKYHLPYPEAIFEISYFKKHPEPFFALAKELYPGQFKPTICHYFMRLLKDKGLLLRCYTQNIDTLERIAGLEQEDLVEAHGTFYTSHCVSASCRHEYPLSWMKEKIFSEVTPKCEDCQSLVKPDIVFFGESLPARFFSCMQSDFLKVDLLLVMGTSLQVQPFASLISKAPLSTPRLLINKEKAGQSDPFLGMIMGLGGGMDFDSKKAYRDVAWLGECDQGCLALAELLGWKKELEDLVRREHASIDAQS
Kind of assay: Fluor-de-Lys peptide deacetylation assay, Sirt2. The settings on record: 100 μM compound; 0.1 mM FdL-2 peptide, 0.5 mM NAD+. The method, then: The Sirt2 construct was expressed in E. coli Rosetta2 cells (Merck) in LB/Ampicillin/Chloramphenicol medium. Cells were grown at 37 °C, and expression induced at an OD600 of 0.6-0.8 for 4 h with 0.5 mM IPTG. Harvested cells were resuspended in buffer A (50 mM Tris/HCl pH 7.8, 200 mM NaCl, 2 mM DTT), disrupted with a Sonifier, and cell debris removed by 40 min centrifugation at 4 °C, 18000 rpm in a HFA22.50 rotor. The supernatant was supplemented with 10 mM imidazole and incubated with Ni-NTA resin for 1 h at 4 °C. […] The protein was concentrated in an amicon unit (Millipore, Billerica, USA) and digested over night at 4 °C with TEV-protease. The protease was removed from cleaved Sirt2 by incubation with Ni-NTA resin for 1 h at 4 °C. The protein was concentrated, 1:5 diluted with 50 mM Tris/HCl, pH 7.8, and applied to a HiTrap Q anion exchange column (GE Healthcare) equilibrated with 50 mM Tris/HCl, pH 7.8, 50 mM NaCl, 2 mM DTT and eluted with a gradient (20 column volumes) to 50 mM Tris/HCl, pH 7.8, 1 M NaCl, 2 mM DTT. Sirt2 was then applied to a Superdex200 gel filtration column (GE Healthcare) equilibrated in 20 mM Tris/HCl, pH 7.8, 150 mM NaCl, 2 mM DTT. The eluted protein was analyzed by SDS-PAGE, re-concentrated, and shock-frozen in liquid nitrogen for storage at -80 °C.
(§1) The commercial Fluor-de-Lys (FdL) assay kits 1 and 2 (Biomol, Plymouth Meeting, USA) were used to test the deacetylase activity of the four Sirtuins. In both kits the substrate derived from p53 is composed of three amino acids, the acetyl lysine and a C-terminally attached fluorophor. For Sirt2 and 3, FdL-2 peptide (QPK(acetyl-K)) was used, and FdL-1 peptide (RHK(acetyl-K)) for Sirt5 and Sirt6. All tests were done with 0.1 mM of the respective FdL peptide and 0.5 mM NAD^+ as substrates.
(§2) NCI compound stocks were prepared by dissolving them in DMSO at a concentration of 5 mM. The initial screens with all 40 compounds contained 5 μl Sirtuin solution (Sirt2/3 0.1 mg/ml stock concentration; Sirt5/6 1 mg/ml), 1 μl of compound stock (resulting in a 100 μM end concentration), 15 μl FdL substrate, and assay buffer (supplied in the assay kit) to a total volume of 50 μl. As control reactions, peptide with either the compound (without Sirtuin) or with Sirtuin and DMSO instead of compound were measured. After starting the reactions by adding the FdL substrate, assays were incubated for 30 min at 37 °C. Subsequently, 50 μl of a 10 mg/ml trypsin stock (“Developer solution”) were added and the reactions were incubated for 45 min at room temperature. Fluorescence values were measured in a fluorometric plate reader with excitation at 360 nm and read out at 485 nm. Values were then corrected with the control reaction (same compound, but without Sirtuin).
(§3) All measurements shown are averages of duplicates (screen) or triplicates (dose-response curves), and representatives of at least two independent replications. Error bars indicate standard deviations.

The target of assay [2] is T2, Sirt6 (Homo sapiens, UniProt Q8N6T7).
T2 construct: Sirt6 residues 13-308; His-tag with linker comprising a TEV protease cleavage site (N, cleaved yes); made in house; host or cells: E. coli Rosetta2
T2 sequence (Q8N6T7 13-308): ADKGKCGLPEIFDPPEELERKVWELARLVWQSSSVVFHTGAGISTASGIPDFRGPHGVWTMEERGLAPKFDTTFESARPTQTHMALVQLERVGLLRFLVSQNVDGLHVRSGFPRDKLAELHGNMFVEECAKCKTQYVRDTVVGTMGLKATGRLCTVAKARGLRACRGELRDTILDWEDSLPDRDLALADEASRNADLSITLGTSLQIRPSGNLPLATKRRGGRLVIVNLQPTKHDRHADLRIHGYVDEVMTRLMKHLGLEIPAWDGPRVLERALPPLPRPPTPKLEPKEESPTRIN
The assay can be described thus: Fluor-de-Lys peptide deacetylation assay, Sirt6. The settings on record: 100 μM compound; 0.1 mM FdL-1 peptide, 0.5 mM NAD+. The method, then: as §1, §2, §3

Assay [3] addresses T3, Sirt5 (Homo sapiens, UniProt Q9NXA8).
T3 construct: Sirt5 residues 34-302; His-tag with linker comprising a TEV protease cleavage site (N); made in house
T3 sequence (Q9NXA8 34-302): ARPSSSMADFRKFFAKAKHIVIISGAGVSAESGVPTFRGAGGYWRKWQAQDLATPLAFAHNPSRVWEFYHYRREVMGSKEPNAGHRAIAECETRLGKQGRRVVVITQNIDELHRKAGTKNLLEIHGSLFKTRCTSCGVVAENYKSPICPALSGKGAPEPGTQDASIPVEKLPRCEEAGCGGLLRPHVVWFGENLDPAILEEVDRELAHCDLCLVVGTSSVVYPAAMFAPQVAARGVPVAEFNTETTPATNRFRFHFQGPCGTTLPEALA
The assay can be described thus: Fluor-de-Lys peptide deacetylation assay, Sirt5. The settings on record: 100 μM compound; 0.1 mM FdL-1 peptide, 0.5 mM NAD+. How it is done:
(§4) Sirt3 was expressed in E. coli and purified via Ni-NTA and size exclusion chromatography as described elsewhere, and Sirt5 according to the protocol of Schuetz et al.. […] The protein was bound to the HiTrapQ column in buffer A and eluted in a gradient to buffer A supplemented with 400 mM KCl. Fractions were analyzed by SDS-PAGE, and the Sirt1 fractions were pooled and transferred into buffer A using a NAP column (GE Healthcare).
as §1, §2, §3

In assay [4] the target is T4, Sirt3 (Homo sapiens, UniProt Q9NTG7).
T4 construct: Sirt3 residues 114-399; His-tag with linker comprising a TEV protease cleavage site (N); made in house; host or cells: E. coli
T4 sequence (Q9NTG7 114-399): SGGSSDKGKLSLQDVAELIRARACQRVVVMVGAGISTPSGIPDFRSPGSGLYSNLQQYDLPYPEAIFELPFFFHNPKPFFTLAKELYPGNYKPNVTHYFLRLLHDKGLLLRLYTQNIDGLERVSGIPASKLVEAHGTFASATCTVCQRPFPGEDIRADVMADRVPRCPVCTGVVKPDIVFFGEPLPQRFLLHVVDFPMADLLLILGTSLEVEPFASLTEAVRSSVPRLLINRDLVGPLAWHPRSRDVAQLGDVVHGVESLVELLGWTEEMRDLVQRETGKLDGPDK
The assay can be described thus: Fluor-de-Lys peptide deacetylation assay, Sirt3. The settings on record: 100 μM compound; 0.1 mM FdL-2 peptide, 0.5 mM NAD+. The method, then: as §4, §1, §2, §3

As for `COc1ccc2c(c1)Cc1cc(/N=[N+](\[O-])c3ccc4c(c3)Cc3cc(OC)ccc3-4)ccc1-2` [CSC32, 1-hydroxy-1,2-bis(7-methoxy-9H-fluoren-2-yl)-1^5-diazene], in assay [1], the “Effect on the activity of Sirt2” value is “inhibition (significant inhibitory effects (>25% loss of activity))”. Further, the “Effect on the activity of Sirt6” value in assay [2] is reported as “--- (no such effect)”. The “Effect on the activity of Sirt5” value in assay [3] is “--- (no such effect)”. The “Effect on the activity of Sirt3” value in assay [4] is “--- (no such effect)”.

For the compound `N=C(c1ccc2ccccc2c1)c1ccccc1Cc1ccccc1` [CSC22, (2-benzylphenyl)(2-naphthyl)methanimine], the “Effect on the activity of Sirt2” value in assay [1] is “inhibition (significant inhibitory effects (>25% loss of activity))”. In addition, in assay [2], the “Effect on the activity of Sirt6” value is reported as “--- (no such effect)”. Also, the “Effect on the activity of Sirt5” value in assay [3] was “--- (no such effect)”. Further, the “Effect on the activity of Sirt3” value in assay [4] is on record as “--- (no such effect)”.

As for `Clc1ccc(-c2noc(CN3CCCCC3)n2)cc1` [CSC37, 1-((3-(4-chlorophenyl)-1,2,4-oxadiazol-5-yl)methyl)piperidine], the “Effect on the activity of Sirt2” value in assay [1] is recorded as “inhibition (significant inhibitory effects (>25% loss of activity))”. Further, the “Effect on the activity of Sirt6” value in assay [2] is given as “--- (no such effect)”. In addition, in assay [3], the “Effect on the activity of Sirt5” value is on record as “--- (no such effect)”. Further, the “Effect on the activity of Sirt3” value in assay [4] is on record as “--- (no such effect)”.

As for `CC(C)c1ccc(C=C2C=C(c3ccc4ccccc4c3)OC2=O)cc1` [CSC9, 3-(4-isopropylbenzylidene)-5-(2-naphthyl)-2(3H)-furanone], in assay [1], the “Effect on the activity of Sirt2” value is “inhibition (significant inhibitory effects (>25% loss of activity))”. Besides, the “Effect on the activity of Sirt6” value in assay [2] is on record as “--- (no such effect)”. Also, the “Effect on the activity of Sirt5” value in assay [3] was “activation^c”. In addition, the “Effect on the activity of Sirt3” value in assay [4] is on record as “--- (no such effect)”.

For `OC1(C(O)(c2ccc(-c3ccccc3)cc2)c2ccc(-c3ccccc3)cc2)CCCCC1` [CSC39, 1-(di[1,1'-biphenyl]-4-yl(hydroxy)methyl)cyclohexanol], the “Effect on the activity of Sirt2” value in assay [1] is listed as “--- (no such effect)”. The “Effect on the activity of Sirt6” value in assay [2] is “--- (no such effect)”. For the same compound, the “Effect on the activity of Sirt5” value in assay [3] is listed as “--- (no such effect)”. The “Effect on the activity of Sirt3” value in assay [4] is “--- (no such effect)”.

Consider `Cc1ccc(C2(C)CCC(=NN=C3CCC(C)(c4ccc(C)c(C)c4)c4cc(C)c(C)cc43)c3cc(C)c(C)cc32)cc1C` (stereo not drawn) [CSC26, 4-(3,4-dimethylphenyl)-4,6,7-trimethyl-3,4-dihydro-1(2H)-naphthalenone (4-(3,4-dimethylphenyl)-4,6,7-trimethyl-3,4-dihydro-1(2H)-naphthalenylidene)hydrazone], for which, in assay [1], the “Effect on the activity of Sirt2” value is reported as “--- (no such effect)”. Further, the “Effect on the activity of Sirt6” value in assay [2] is on record as “--- (no such effect)”. The “Effect on the activity of Sirt5” value in assay [3] is reported as “--- (no such effect)”. Further, in assay [4], the “Effect on the activity of Sirt3” value is given as “--- (no such effect)”.

Turning to “7-(1-naphthyl)-7^5-dibenzo[a,j]phenazin-5-amine compound with 7-(1-naphthyl)-7^5-dibenzo[a,j]phenazine-5,9-diamine (1:1), (Sudan Red) [CSC1]”, the “Effect on the activity of Sirt2” value in assay [1] is listed as “inhibition^a (significant inhibitory effects (>25% loss of activity))”. For the same compound, the “Effect on the activity of Sirt6” value in assay [2] is listed as “inhibition (significant inhibitory effects (>25% loss of activity))”. Further, the “Effect on the activity of Sirt5” value in assay [3] is listed as “inhibition (significant inhibitory effects (>25% loss of activity))”. Also, in assay [4], the “Effect on the activity of Sirt3” value is “inhibition (significant inhibitory effects (>25% loss of activity))”.

Take `S=C(Nc1ccc2c(c1)Cc1ccccc1-2)Nc1ccc2c(c1)Cc1ccccc1-2` [CSC7, N,N'-di(9H-fluoren-2-yl)thiourea]: the “Effect on the activity of Sirt2” value in assay [1] was “inhibition (significant inhibitory effects (>25% loss of activity))”. In addition, the “Effect on the activity of Sirt6” value in assay [2] is “--- (no such effect)”. In assay [3], the “Effect on the activity of Sirt5” value is “--- (no such effect)”. The “Effect on the activity of Sirt3” value in assay [4] is listed as “--- (no such effect)”.

For the compound `O=C1c2ccccc2C(=O)c2c1ccc(N1C(=O)c3ccccc3C1=O)c2-c1c(N2C(=O)c3ccccc3C2=O)ccc2c1C(=O)c1ccccc1C2=O` [CSC27], the “Effect on the activity of Sirt2” value in assay [1] is “inhibition (significant inhibitory effects (>25% loss of activity))”. Further, the “Effect on the activity of Sirt6” value in assay [2] is “inhibition (significant inhibitory effects (>25% loss of activity))”. For the same compound, the “Effect on the activity of Sirt5” value in assay [3] is “--- (no such effect)”. For the same compound, the “Effect on the activity of Sirt3” value in assay [4] is listed as “--- (no such effect)”.

As for `O=C1C=C(Nc2nc(O)cc(C(=O)O)n2)c2ccccc2C1=O` [CSC30, 2-((3,4-dioxo-3,4-dihydro-1-naphthalenyl)amino)-6-hydroxy-4-pyrimidinecarboxylic acid], in assay [1], the “Effect on the activity of Sirt2” value is “--- (no such effect)”. Besides, the “Effect on the activity of Sirt6” value in assay [2] is “--- (no such effect)”. For the same compound, the “Effect on the activity of Sirt5” value in assay [3] is listed as “--- (no such effect)”. Besides, in assay [4], the “Effect on the activity of Sirt3” value is given as “--- (no such effect)”.

Turning to `O=S1(=O)C(c2ccccc2)C(N2CCCCC2)C1C1CC2c3ccccc3C1c1ccccc12` (stereo not drawn) [CSC33], the “Effect on the activity of Sirt2” value in assay [1] was “--- (no such effect)”. Further, in assay [2], the “Effect on the activity of Sirt6” value is listed as “activation”. Besides, the “Effect on the activity of Sirt5” value in assay [3] is on record as “activation”. The “Effect on the activity of Sirt3” value in assay [4] is reported as “--- (no such effect)”.

Regarding `O=C(Nc1ccc(Nc2ccc3c(c2)C(=O)c2ccccc2C3=O)c2c1C(=O)c1ccccc1C2=O)c1ccccc1` [CSC17, N-(4-((9,10-dioxo-9,10-dihydro-2-anthracenyl)amino)-9,10-dioxo-9,10-dihydro-1-anthracenyl)benzamide, (Indanthrene Corinth RK)], the “Effect on the activity of Sirt2” value in assay [1] is listed as “--- (no such effect)”. Besides, in assay [2], the “Effect on the activity of Sirt6” value was “--- (no such effect)”. Moreover, the “Effect on the activity of Sirt5” value in assay [3] was “--- (no such effect)”. In addition, the “Effect on the activity of Sirt3” value in assay [4] is listed as “--- (no such effect)”.
